Results reported in patent publication US20040180035A1, “IL-15 immunoconjugates and uses thereof” (EMD Lexigen Research Center Corp., priority 1998, published 2004).

Tested on: LLC-Ep tumors
Test: LLC-Ep subcutaneous tumor growth in C57BL/6 mice (Example 6)
Type: in vivo
Conditions: after treatment for 22 days; fusion protein 25 μg/mouse i.v., 5 daily injections; indomethacin 20 μg/mL in drinking water
Method: Female C57B1/6 mice were injected subcutaneously in the mid-back with LLC-Ep cells (2×10^6 cells per injection). When the tumors reached 600-1200 mm^3, the mice were sacrificed. The skin overlying the tumor was cleaned with betadine and ethanol, the tumors excised and necrotic tissue discarded. A suspension of tumor cells in phosphate buffered saline was prepared by passing viable tumor tissue through a sieve and then through a series of sequentially smaller […] needles of 22- to 30-gauge. The cells were adjusted to a concentration of 1×10^7 cells/mL and placed on ice. C57BL/6 mice then were injected with 0.1 mL of the freshly resuspended cells (1×10^6 cells/mouse) in the proximal midline of the subcutaneous dorsa.
When the tumors reached 100-200 mm^3 in size (about 7 to 14 days), the mice were randomized into four groups, 5 mice per group. Group 1 received intravenous injections of 0.2 mL of PBS daily. Group 2 received 5 daily intravenous injections of huKS-huγ1-huIL2 (25 μg/mouse) in PBS. Group 3 received indomethacin orally in drinking water (20 μg/mL, or about 60-70 μg of indomethacin consumed daily per mouse) throughout the treatment period. Group 4 received 5 daily intravenous injections of huKS-huγ1-huIL2(25 μg/mouse), and indomethacin orally in drinking water (20 μg/mL) throughout the treatment period. Tumor volumes were measured as described in Example 3. […]

COc1ccc2c(c1)c(CC(=O)O)c(C)n2C(=O)c1ccc(Cl)cc1 [indomethacin]
T/C ratio: 0.60
